In US20080286339A1, “METHODS AND DEVICES FOR THE SUSTAINED RELEASE OF MULTIPLE DRUGS” (priority 2003, published 2008):
Read-outs that look alike come from different tables or passages of the source.

What was measured:
[1] = tested on: endogenous luteinizing hormone (LH); assay: Intravaginal administration of GnRH/hydrogel to Rhesus monkeys, serum endogenous LH (Example 7); type: in vivo; conditions: 10 mg GnRH in 2 g hydrogel, 48 hours
[2] = type: physicochemical; conditions: for In vitro release kinetics: EVA ring, 70:30 PBS:EtOH pH 6, 37° C., 14 to 21 day period
Description: At the indicated time points media was collected and measured by HPLC on an Agilent 1100 Series HPLC (Agilent, Forest City, Calif.). […] Results were calculated based on the area under the curve compared to a 5 point calibration curve. Results were expressed as the cumulative release in μg released over the course of the experiment.

[3] = Expected characteristics of Ring A / Ring B formulations (Table II); type: in vivo; conditions: 21 days of release
Description: In an alternate embodiment of this aspect of the invention, the two formulations described above (the LHRH/estrogenic steroid formulation and LHRH/estrogenic/progestational steroid formulation) are combined in one drug delivery device, which is designed to remain in the vagina of the female for the entire menstrual cycle. In this embodiment, the drug delivery device comprises at least one cylindrical unitary segment per hormonal formulation, or, alternatively, at least one cylindrical unitary segment per active ingredient (i.e., LHRH, sex steroid, or sex steroid modulator). The choice of polymeric material and the ratio of polymeric material to LHRH/sex steroid/sex steroid modulator are preselected for each segment to provide the appropriate release kinetics for the individual steroids and/or steroidal formulations. By selecting the polymeric material based on its release properties and adjusting the ratio of polymeric material to drug, the method of the present invention provides the pre-set timed delivery of LHRH, estrogenic steroid, and progestational steroid at the appropriate phase of the menstrual cycle to achieve the desired contraceptive effect. For example, this “combined” device would release LHRH and/or its agonists or antagonists continuously for 30 days in combination with an estrogenic compound.

[4] = endogenous, normal menstrual cycle, cited from earlier work; for Tmax: phase of cycle
[5] = estradiol administered at 100 μg/day; cited from earlier work
[6] = Effect of cellulosics (Methocel) on in vitro release from EVA (Example 5); type: physicochemical; conditions: EVA with 5% or 25% Methocel, PBS pH 6.10:ethanol 70:30, 37° C.
Description: Also, varying amounts of a commercially available cellulosic, Methocel® (Dow Chemicals, Co., Midland, Mich.) were incorporated into the mixtures to evaluate the effect of cellulosics on release kinetics. […] The solutions were slowly emulsified into a methylene chloride solution containing EVA. The resulting emulsions were solvent-casted into a mold, which was then cooled on dry ice. Following sublimation, the […] were cut into 1 cm×1 cm samples, and placed in scintillation vials, to which 0.1 M phosphate buffered saline (pH 6.10) and ethanol were added in a 70:30 ratio. The vials were placed in a 37° C. incubator on a shaker rotating at 100 RPM. The buffer solution was replaced at predetermined time points. […] Next, the release kinetics were determined by plotting the cumulative release amounts as a function of time.

[7] = In vitro release from double-sided EVA disc (Example 6); type: physicochemical; conditions: 70:30 PBS:EtOH pH 6, 37° C.
Description: Also, the EVA/drug mixtures were combined to form a double-sided disc, comprising estradiol on one side and progesterone on the other. After drying, the discs were evaluated for their release kinetics. […] At the indicated time points, 100% of the media was collected for measurement and 100 ml of release media was replaced. The media was measured by an Agilent 1100 Series HPLC (Agilent). […] Results were calculated based on the area under the curve compared to a 5 point calibration curve and depicted in FIG. 7 as the cumulative percent released.

[8] = type: in vivo; conditions: for Duration of release from the ring: delayed release ring
Description: The rate of hydration of the intravaginal device depends on many factors, including the rate of water penetration into the polymer. The rate of water penetration can be modulated by the osmotic pressure within the polymer. The osmotic pressure can be modulated by adding salt (NaCl, KCl, etc) to the formulation of the drug.
Estradiol and GnRH can be formulated as described herein. Yet, additional salt is added (300 mmol).

Drug Circulation Level ([3]; Ring A) [pg/mL] | Drug Circulation Level ([3]; Ring B) [pg/mL] | In vitro release kinetics with addition of Methocel [6] | In vitro release kinetics [7] | Duration of release from the ring [8] [days] | Time after which release begins ([8]; segment without salt) [days] | Compound | Effect on endogenous LH levels [1] | Serum level in the circulation that the delivery rates are capable of producing [2] [ng/mL] | In vitro release kinetics [2] | Time for which the ring sustains adequate flux rates ([2]; not told) | Cmax [4] [ng/mL] | Steady State Serum Concentration [4] [pg/mL] | Tmax [4] | Serum level produced [5] | T1/2 [4] [h]
– | – | – | – | – | – | p-Glu-His-Trp-Ser-Tyr-Gly-Leu-Arg-Pro-Gly-NH2 [GnRH] | produces elevated levels of endogenous LH | 3 to 6 | stable zero order release kinetics | at least 21 days | – | – | – | – | –
100 | 100 | – | – | – | – | C[C@]12CC[C@@H]3c4ccc(O)cc4CC[C@H]3[C@@H]1CC[C@@H]2O [Estradiol, estradiol] | – | – | – | – | 0.5 | 50 to 500 | Midcycle | approximately 100 pg/ml | –
– | 6000 | pseudo zero order release kinetics | independent bi-phasic release kinetics | 4 | 14 | CC(=O)[C@H]1CC[C@H]2[C@@H]3CCC4=CC(=O)CC[C@]4(C)[C@H]3CC[C@]12C [Progesterone, progesterone] | – | – | stable zero order release kinetics | – | 35 | 2000 to 6000 | Midluteal | – | 12
– | – | – | – | 28 | – | CCNC(=O)[C@@H]1CCCN1C(=O)[C@H](CCCNC(=N)N)NC(=O)[C@H](CC(C)C)NC(=O)[C@@H](Cc1c[nH]c2ccccc12)NC(=O)[C@H](Cc1ccc(O)cc1)NC(=O)[C@H](CO)NC(=O)[C@H](Cc1c[nH]c2ccccc12)NC(=O)[C@H](Cc1c[nH]cn1)NC(=O)[C@@H]1CCC(=O)N1 [D-Trp6-Pro9-Net-GnRH] | – | – | – | – | – | – | – | – | –
